The subject of data set [1] is skin on the inner side of the upper arm. The data set can be described thus: Skin irritation in the test subjects of the TEWL test. It counts as in vivo. To be noted: all test subjects (n=6), 100 μl on the skin. Here is the method:
100 μl of each product was applied to the skin on the inner side of the upper arm and kept absorbed into the skin for 5 minutes. The transepidermal water loss was then measured at predetermined intervals. In addition, all the test subjects (n=6) had no irritation to both the plant fat composition of the present invention and the plant-derived squalane.

For data set [2] the following is noted: Journal of the American College of Toxicology Vol. 6, No. 3, 1987; cited from earlier work.
Data set [3] in a line: DPPH radical scavenging (antioxidative effect). As to conditions: concentration of 10%; 30 minutes in the dark, absorbance 540 nm. Here is the method:
DPPH (2,2-diphenyl-1-picryl-hydrazyl) is a purple-colored stable free radical substance that receives hydrogens from an antioxidant to undergo decolorization. Upon exposure to an antioxidant, the DPPH acts as a […] the antioxidant and becomes removed of free radicals, resulting in decolorization, which makes it possible to evaluate the radical-scavenging activity.
Vitamin E (acetate) was used as a control.
(a) Prepare a 0.2 mM DPPH reagent dissolved in n-hexane.
(b) Prepare test samples by concentration.
(c) Add 100 μl of the reagent and 100 μl of each sample in four wells of a 96-well test plate.
(d) Add 100 μl of the reagent and 100 μl of a solvent in four wells to remove the blank value.
(e) Kept in the dark for 30 minutes at the room temperature.
(f) Measure the absorbance at 540 nm with an ELISA reader (TECAN microplate reader).
Analysis Method (Calculation Method) DPPH radical scavenging ability (%)=[1−(absorbance of sample/absorbance of blank)]×100
For orientation: DPPH is a stable violet radical that fades when it is reduced.

The values below come from patent US9987216B2, “Plant fat composition for cosmetic preparation” (priority 2016, dated 2018).

For the molecule `CC(C)CCCC(C)CCCC(C)CCCCC(C)CCCC(C)CCCC(C)C` (stereo not shown) [plant-derived squalane, squalane], in data set [1], the skin irritation entry was “no irritation”. For the molecule `CCCCCCCCCCCCCCCCCC(=O)O` [stearic acid], the “safety in use for cosmetic formulations” value in data set [2] is recorded as “safe”. With `CCCCCCCCCCCCCCCC(=O)O` [palmitic acid], the “safety in use for cosmetic formulations” value in data set [2] is “safe”. Take `CCCCCCCCCCCC(=O)O` [lauric acid]: in data set [2], the “safety in use for cosmetic formulations” value is “safe”.

For the molecule `CC(=O)Oc1c(C)c(C)c2c(c1C)CCC(C)(CCC[C@H](C)CCC[C@H](C)CCCC(C)C)O2` (stereo partly shown) [vitamin E, Vitamin E (acetate)], the “DPPH radical scavenging activity” value in data set [3] is 5%. For the molecule `CCCCCCCCCCCCCC(=O)O` [myristic acid], in data set [2], the “safety in use for cosmetic formulations” value is recorded as “safe”.

On to `CCCCCCCC/C=C\CCCCCCCC(=O)O` [oleic acid], for which, in data set [2], the “safety in use for cosmetic formulations” value is recorded as “safe”.
